Reference: article PMC6539525, “Design, Synthesis, and Mechanism of Dihydroartemisinin–Coumarin Hybrids as Potential Anti-Neuroinflammatory Agents” (Molecules, 2019)
Read-outs that look alike come from different tables or passages of the source.

Tests used:
HT-29 cells = experiment: MTT cytotoxicity in HT-29 cells; format: cell-based, Human; settings: Homo sapiens, MTT
Experimental: (§1) As the anti-neuroinflammatory agents for cancer patients, all newly synthesized compounds were evaluated in vitro for antitumor activity against human breast cancer cell line MDA-MB-231, colorectal cancer cells HT-29 and HCT-116, and lung cancer cell line A549 by using the standard MTT method, respectively. Doxorubicin (DOX) and DHA were used as the reference standard. Additionally, owing to the rapid proliferation, the tumor cells actually was always in hypoxia condition. Therefore, the in vitro cytotoxicity was evaluated in two different conditions (hypoxia and normoxia).
After recovery, the cells were cultured in 96-well plates for 24 h at 37 °C in a humidified atmosphere with 95% air and 5% CO2. After treated with different tested compounds, the hypoxia groups were placed in a sealed hypoxia incubator chamber (Stemcell Technologies, Inc., Vancouver, BC, Canada) filled with 5% CO2 and 95% N2 for 24 h, and then transferred to the incubator chamber filled with air for 72 h. […]
(§2) Cancer cells HT-29 (Human Colorectal Adenocarcinoma cell line), MDA-MB-231 (Human Breast Cancer cell line), HCT-116 (Human Colorectal Carcinoma cell line), and A549 (Human Lung Adenocarcinomic cell line) were from ATCC.
When the adherent cells reached 80% confluence, the culture medium was discarded. The cells were digested by trypsin and collected after centrifugation. The fresh culture medium was gently blown into it to form single-cell suspension. Cell suspension will be diluted to 1.5–3 × 10^4 cells/mL. Each hole of 96-well plates was added 100 μL cell suspension and incubated for 24 h (5% CO2; 37 °C). Then the holes were added different concentrations of tested compounds. The early screening concentration is set to 100 μM, 50 μM, 25 μM, 12.5 μM, and 6.25 μM. Three replicates were made for each concentration of the tested compounds. […] The medium was discarded and each well was added 100 μL DMSO to dissolve the formazan blue. Absorbance was measured at 570 nm with a microplate reader (Synergy-HT, BioTek Instruments, Winooski, VT, USA). […]

MDA-MB-231 cells = experiment: MTT cytotoxicity in MDA-MB-231 cells; format: cell-based; settings: Homo sapiens
Experimental: as §1
(§3) After recovery, the cells were cultured in 96-well plates for 24 h at 37 °C in a humidified atmosphere with 95% air and 5% CO2. After treated with different tested compounds, the hypoxia groups were placed in a sealed hypoxia incubator chamber (Stemcell Technologies, Inc., Vancouver, BC, Canada) filled with 5% CO2 and 95% N2 for 24 h, and then transferred to the incubator chamber filled with air for 72 h. On the contrary, the normoxia groups were cultured under air condition for 96h.
as §2
(§4) When the adherent cells reached 80% confluence, the culture medium was discarded. The cells were digested by trypsin and collected after centrifugation. The fresh culture medium was gently blown into it to form single-cell suspension. Cell suspension will be diluted to 1.5–3 × 10^4 cells/mL. Each hole of 96-well plates was added 100 μL cell suspension and incubated for 24 h (5% CO2; 37 °C). Then the holes were added different concentrations of tested compounds. The early screening concentration is set to 100 μM, 50 μM, 25 μM, 12.5 μM, and 6.25 μM. Three replicates were made for each concentration of the tested compounds. After the cells were grown for 96h, 20 μL MTT (5 mg/mL) was added to each well and incubated for 4 h. The medium was discarded and each well was added 100 μL DMSO to dissolve the formazan blue. Absorbance was measured at 570 nm with a microplate reader (Synergy-HT, BioTek Instruments, Winooski, VT, USA).
(§5) Hypoxia condition: The cells were treated with different concentration of tested compounds, placed in hypoxia chamber (Catalog Number 27310, Stemcell Technologies, Inc., Vancouver, BC, Canada), and incubated for 24 h ([…]; 37 °C). Then the cells were placed in normoxia condition (5% CO2; 37 °C) and incubated for 72 h.

HCT-116 cells = experiment: MTT cytotoxicity in HCT-116 cells; format: cell-based; settings: Homo sapiens
Experimental: as §1, §3, §2, §4, §5

A549 cells = experiment: MTT cytotoxicity in A549 cells; format: cell-based; settings: Homo sapiens
Experimental: as §1, §3, §2, §4, §5

[1] = system: NO release of LPS-induced microglial N9 cells; experiment: Inhibition of NO release in LPS-induced N9 cells (Griess); format: cell-based, murine; settings: Mus musculus, 1 μg/mL LPS for 48 h, NO level in medium
Experimental: (§6) The anti-neuroinflammatory activity of DCH was evaluated and then the representative compounds were selected for the further study. […] In addition, in order to exclude the death influence, MTT-IC20 of all the compounds were measured. […] The exact reason was still unclear, but we supposed that it might be related to the homeostasis of cells. The tumor cells actually were always in hypoxia condition, in which DCH could promote the cytotoxic activity against tumor cells. In brief, DCH could reduce the release of NO caused by LPS-induced microglial cells.
(§7) N9 cells, which were in the logarithmic phase, were incubated for 24 h by adherent culture. Subsequently, the medium was changed to new one without serum. The cells were treated with different concentration of tested compounds. After specific time in the LPS condition, the supernatants were collected and analyzed.
The nitrite levels in medium were determined by Griess reaction. The absorbance was measured at 540 nm using a microplate reader.

[2] = MTT cytotoxicity in N9 cells; format: cell-based, murine; settings: mouse, N9 microglial cells, cytotoxic activity
Experimental: as §6, §4, §7

[3] = system: TNF-α release of LPS-induced N9 cells; experiment: TNF-α release of LPS-induced N9 cells (cytokine kit); format: cell-based, murine; settings: compound 1 μM, LPS 1 μg/mL, 48 h; for inhibition at 1 µM: Mus musculus
Experimental: as §7
(§8) The secreted level of TNF-α and IL-6 was measured using mouse Th1/Th2/Th17 Cytokine Kit, purchased from BD Pharningen. The data was analyzed by FCAP Array v3.0. IL-2, IL-4, IL-10, IL-17A, and IFN-γ were not detected in the experiment.

[4] = system: IL-6 release of LPS-induced N9 cells; experiment: IL-6 release of LPS-induced N9 cells (cytokine kit); format: cell-based, murine; settings: compound 1 μM, LPS 1 μg/mL, 48 h; for inhibition at 1 µM: Mus musculus
Experimental: as §7, §8

[5] = NO capture analysis with sodium nitroprusside (Griess); settings: 0.01-10 μM compound, 0.5 mM SNP solution, 1 h, room temperature
Experimental: Sodium nitroprusside (SNP) is a NO donor. In this experiment, the reason of the DCH reducing NO level was preliminary explored. […] That means the main reason of the NO level reduction is due to species-specific effect.
SNP was dissolved in PBS to prepare the 100 mM stock solution. In this experiment, SNP solution of […] was added to 975 μL PBS solution which included different concentration of tested compounds. After 60 min under r.t. condition, the concentration of NO2^− was tested using Griess assay.
6l (0.01 μM, 0.1 μM, 1 μM, and 10 μM) or 5n (0.01 μM, 0.1 μM, 1 μM, and 10 μM) was added to a concentration of 0.5 mM SNP solution. […] Data were shown as mean ± SD. *** p < 0.001 compared with control group.

[6] = HT-29, hypoxia 24 h then normoxia 72 h, read-out: IC50 HT-29 Hypoxia
[7] = HT-29, normoxia 96 h, read-out: IC50 HT-29 Normoxia
[8] = MDA-MB-231, hypoxia 24 h then normoxia 72 h, read-out: IC50 MDA-MB-231 Hypoxia
[9] = MDA-MB-231, normoxia 96 h, read-out: IC50 MDA-MB-231 Normoxia
[10] = HCT-116, hypoxia 24 h then normoxia 72 h, read-out: IC50 HCT-116 Hypoxia
[11] = HCT-116, normoxia 96 h, read-out: IC50 HCT-116 Normoxia
[12] = A549, hypoxia 24 h then normoxia 72 h, read-out: IC50 A549 Hypoxia
[13] = A549, normoxia 96 h, read-out: IC50 A549 Normoxia

| Compound | IC50 (HT-29 cells; [6]) [µM] | IC50 (HT-29 cells; [7]) [µM] | IC50 (MDA-MB-231 cells; [8]) [µM] | IC50 (MDA-MB-231 cells; [9]) [µM] | IC50 (HCT-116 cells; [10]) [µM] | IC50 (HCT-116 cells; [11]) [µM] | IC50 (A549 cells; [12]) [µM] | IC50 (A549 cells; [13]) [µM] | IC50 [1] [µM] | IC20 [2] [µM] | inhibition at 1 µM [3] [%] | TNF-α [3] [pg/mL] | inhibition at 1 µM [4] [%] | IL-6 [4] [pg/mL] | melting point [°C] | NO radical scavenging activity [5] |
| --- | --- | --- | --- | --- | --- | --- | --- | --- | --- | --- | --- | --- | --- | --- | --- | --- |
| Cc1ccc2oc(=O)cc(OCc3cn(CCCO[C@H]4O[C@@H]5O[C@@]6(C)CC[C@H]7[C@H](C)CC[C@@H]([C@H]4C)[C@@]57OO6)nn3)c2c1 [6p] | 12.5 | 7.49 | 10.3 | 22.1 | 38.1 | 35.3 | 18.8 | 18.9 | 1.42 | > 10 | 23.4 | 3451.29 ± 646.50 | 35.2 | 747.80 ± 125.56 | 80 to 82 | – |
| C[C@H]1[C@@H](OCCc2cn(Cc3cc4cc(Br)ccc4oc3=O)nn2)O[C@@H]2O[C@@]3(C)CC[C@H]4[C@H](C)CC[C@@H]1[C@@]24OO3 [2b, 6-bromo-3-((4-(2-((10S)-dihydroartemisininoxy)ethyl)-1H-1,2,3-triazol-1-yl)-methyl)-2H-1-chromen-2-one] | 12.1 | 9.75 | 36.9 | 37.7 | > 100 | 56 | 60.2 | > 100 | 0.64 | > 10 | 27.2 | 3285.99 ± 1062.40 | 30.9 | 797.52 ± 140.74 | 138 to 140 | – |
| Cc1cc(C)c2c(OCc3cn(CCCO[C@H]4O[C@@H]5O[C@@]6(C)CC[C@H]7[C@H](C)CC[C@@H]([C@H]4C)[C@@]57OO6)nn3)cc(=O)oc2c1 [6l] | 3.4 | 8.41 | 6.85 | 1.17 | 27.9 | 26.9 | 9.78 | 6.88 | 0.52 | > 10 | – | – | – | – | 86 to 88 | had NO radical scavenging activity |
| C[C@H]1[C@@H](OCCc2cn(Cc3cc4cc(Cl)ccc4oc3=O)nn2)O[C@@H]2O[C@@]3(C)CC[C@H]4[C@H](C)CC[C@@H]1[C@@]24OO3 [2c, 6-chloro-3-((4-(2-((10S)-dihydroartemisininoxy)ethyl)-1H-1,2,3-triazol-1-yl)-methyl)-2H-1-chromen-2-one] | 19.6 | 17.5 | 32.5 | 44 | 64.4 | 49.5 | 66.9 | 87.2 | 2.66 | > 10 | 32.1 | 3077.03 ± 375.48 | 26.4 | 850.24 ± 112.47 | 138 to 140 | – |
| C[C@H]1[C@@H](OCc2cn(Cc3cc4cc(Cl)ccc4oc3=O)nn2)O[C@@H]2O[C@@]3(C)CC[C@H]4[C@H](C)CC[C@@H]1[C@@]24OO3 [1c, 6-chloro-3-((4-((10S)-dihydroartemisininoxy)methyl-1H-1,2,3-triazol-1-yl)-methyl)-2H-1-chromen-2-one] | 26.4 | 35.4 | 32.3 | > 100 | 40.4 | 60.3 | 48.7 | 73.5 | 5.33 | > 10 | – | – | – | – | 93 to 95 | – |
| C[C@H]1[C@@H](OCCc2cn(Cc3cc4cc(Br)cc(Br)c4oc3=O)nn2)O[C@@H]2O[C@@]3(C)CC[C@H]4[C@H](C)CC[C@@H]1[C@@]24OO3 [2e, 6,8-dibromo-3-((4-(2-((10S)-dihydroartemisininoxy)ethyl)-1H-1,2,3-triazol-1-yl)-methyl)-2H-1-chromen-2-one] | 13.9 | 38.5 | 44.1 | > 100 | 86.5 | 94.2 | 79.4 | > 100 | 0.94 | > 10 | – | – | – | – | 93 to 95 | – |
| Cc1ccc2c(OCc3cn(CCCO[C@H]4O[C@@H]5O[C@@]6(C)CC[C@H]7[C@H](C)CC[C@@H]([C@H]4C)[C@@]57OO6)nn3)cc(=O)oc2c1 [6k] | 5.32 | 6.85 | 14.5 | 38.6 | 33.7 | 28.1 | 9.49 | 14.9 | 1.91 | > 10 | – | – | – | – | 80 to 82 | – |
| Cc1ccc2c(OCc3cn(CCCO[C@H]4O[C@@H]5O[C@@]6(C)CC[C@H]7[C@H](C)CC[C@@H]([C@H]4C)[C@@]57OO6)nn3)cc(=O)oc2c1C [6n] | 4.19 | 9.16 | 10.8 | 13.3 | 33.7 | 22.5 | 0.039 | 30.4 | 1.13 | 6.53 | – | – | – | – | 115 to 117 | – |
